The source of these data is patent publication US20180015051A1, “MODULATORS OF ALPHA-DICARBONYL DETOXIFICATION AND THEIR USE FOR THE TREATMENT OF DIABETIC PATHOLOGIES” (Buck Institute for Research on Aging, priority 2016, published 2018).

For one assay, the target named is T1, TRPA1 (worm) (Caenorhabditis elegans, UniProt Q18297).
T1 construct: expressed in transfected cells; host or cells: HEK293T
T1 sequence (Q18297 1-1211): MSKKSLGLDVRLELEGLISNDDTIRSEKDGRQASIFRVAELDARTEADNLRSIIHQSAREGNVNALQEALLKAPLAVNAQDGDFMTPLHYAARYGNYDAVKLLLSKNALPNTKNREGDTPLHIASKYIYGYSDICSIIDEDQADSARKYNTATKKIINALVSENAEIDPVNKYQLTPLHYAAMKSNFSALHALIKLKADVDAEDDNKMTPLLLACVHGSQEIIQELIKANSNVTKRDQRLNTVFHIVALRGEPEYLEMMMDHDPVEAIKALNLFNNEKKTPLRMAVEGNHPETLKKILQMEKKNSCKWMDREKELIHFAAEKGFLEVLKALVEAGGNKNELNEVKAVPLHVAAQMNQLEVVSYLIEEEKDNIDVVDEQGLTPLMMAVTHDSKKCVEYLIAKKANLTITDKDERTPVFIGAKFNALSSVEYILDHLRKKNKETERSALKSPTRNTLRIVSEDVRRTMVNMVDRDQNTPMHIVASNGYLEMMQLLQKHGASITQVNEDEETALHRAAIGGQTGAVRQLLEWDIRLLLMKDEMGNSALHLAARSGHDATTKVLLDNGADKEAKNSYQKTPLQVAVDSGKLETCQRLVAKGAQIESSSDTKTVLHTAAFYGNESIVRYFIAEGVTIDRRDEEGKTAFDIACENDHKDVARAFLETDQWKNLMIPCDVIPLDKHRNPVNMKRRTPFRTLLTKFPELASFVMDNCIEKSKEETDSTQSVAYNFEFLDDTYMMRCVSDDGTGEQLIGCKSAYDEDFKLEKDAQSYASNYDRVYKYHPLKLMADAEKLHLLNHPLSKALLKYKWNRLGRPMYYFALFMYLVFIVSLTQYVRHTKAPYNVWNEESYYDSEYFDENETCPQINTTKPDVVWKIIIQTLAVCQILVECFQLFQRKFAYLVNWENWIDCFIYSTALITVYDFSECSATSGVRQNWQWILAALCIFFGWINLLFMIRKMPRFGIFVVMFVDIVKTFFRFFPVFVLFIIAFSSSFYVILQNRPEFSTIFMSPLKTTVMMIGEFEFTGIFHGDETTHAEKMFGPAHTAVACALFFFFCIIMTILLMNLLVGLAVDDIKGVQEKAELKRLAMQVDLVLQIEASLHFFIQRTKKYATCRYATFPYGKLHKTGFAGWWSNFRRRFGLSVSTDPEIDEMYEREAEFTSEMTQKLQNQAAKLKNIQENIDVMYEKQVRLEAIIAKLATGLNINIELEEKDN
In words: Calcium imaging of HEK293T cells (Rhod-3 AM), worm TRPA1. It counts as cell-based, C. elegans. The note with it: HEK293 cells transfected with worm TRPA1 and GFP; 100 pM AITC. Here is the method:
(§1) Appropriate HEK293T-derived cells were seeded on collagen-coated glass bottom culture dishes (MatTek Corporation). Cells were loaded with 10 pM of Rhod-3 AM (Life Technology) for 30 min at 37° C. After 30 min they were washed twice with standard Tyrode's solution (135 mM NaCl, 4 mM KCl, 10 mM glucose, 10 mM HEPES, 2 mM CaCl2, and 1 mM MgCl2 at pH=7.4) at room temperature. Calcium imaging was performed on an Olympus BX51WI Axiovert microscope under a 60× objective. Fluorescent images were documented upon sequential excitation with 555 nm followed by 484 nm with a Roper CoolSnap CCD camera. After establishing a baseline 555/484 ratio, methylglyoxal or other agonists were diluted with Tyrode's solution (100 pM or 1 mM final concentration) and were perfused into cells. Images were processed with the MetaFlour (Olympus) software.

The next assay concerns the target T2, TRPA1 (RAT) (Rattus norvegicus, UniProt Q6RI86).
T2 construct: expressed in transfected cells; host or cells: HEK293T
The following applies: stated as known; cited from earlier work.

Another assay concerns the target T3, TRPM8 (mouse) (Mus musculus, UniProt Q8R4D5).
T3 construct: expressed in transfected cells; host or cells: HEK293T
In words: Calcium imaging of HEK293T cells (Rhod-3 AM), mouse TRPM8. It counts as cell-based. The note with it: HEK293T transfected with mouse TRPM8 and GFP; 100 pM MGO then 100 pM menthol. The procedure: as §1

A further assay concerns native HEK293T cells. The experiment in a line: Calcium imaging of native HEK293T cells (GFP only). It counts as cell-based. Here is the method:
as §1

Assay [1] has as its system C. elegans. The experiment in a line: Touch assay (touch index, gentle touch). The following applies: glod-4, young adult stage; 66.7 pM in DMSO. Here is the method: For feeding RNAi bacteria, synchronized L1 larvae were transferred to NGM plates containing 1 mM of isopropyl P-D-1- thiogalactopyranoside/IPTG (referred to as RNAi plates) seeded with 20× concentrated HT1115 bacteria (cultured overnight at 20° C. at 220 rpm), carrying desired plasmid for RNAi of a specific gene or bacteria carrying empty vector pL4440 as control and allowed to grow on plates for 48 h. For drug assays, synchronized L4 larvae were transferred to either 60 mm NGM plates (with or without IPTG), freshly seeded with 5×E. coli OP50-1 or 20× HT1115 RNAi bacteria. Before seeding, the desired drug (or vehicle control) was mixed with the bacteria. Final drug concentrations were calculated considering the total volume of media and bacteria seeded on the NGM plates.
Briefly, each animal was touched alternately in the head region and in the tail with an eyelash. Typically, an omega turn or diversion in head direction resulting from anterior touch was counted as a positive response. Posterior touch response (not counted towards positive response) functioned towards resetting of the response to anterior touch. Touch index (TI) scores were generated by dividing the total number of positive responses over the […] per animal.
Synchronized glod-4 L1 animals were cultured on NGM agar plates seeded with E. coli OP50-1 until L4. […] Post-transfer into wells, animals were fed OP50-1 bacteria ad libitum while incubating at 20° C. on a rocker for 12 h. DMSO was used as control. Post-incubation with drug or DMSO, animals were transferred from wells onto NGM agar plates seeded with OP50-1 bacteria. Touch assay was performed on individual animal and touch index (TI) was calculated for each compound from the library as mentioned earlier.

The test system of assay [2] is C. elegans. The experiment in a line: Lifespan assay (survival curves). Type of assay: in vivo, Caenorhabditis elegans. The following applies: glod-4 mutant animals; PA, LA, or UMP (20 pM) vs EtOH control. Here is the method: Life span assays were performed in Thermo Scientific Precision incubators at 20° C. After alkaline hypochlorite treatment, synchronized L1 animals were either placed onto NGM plates seeded with 5× concentrated E. coli OP50-1 (cultured on Lysogeny Broth/LB overnight) or on RNAi plates supplemented with 20×HT1115 RNAi bacteria. Post-L4 stage of development, all lifespan assays were performed using FUdR (5-fluoro-2 deoxyuridine) plates to inhibit development and growth of progeny. Every two days, animals were transferred on to new 60 mm NGM or RNAi plates freshly seeded with OP50-1 or HT1115 bacteria (with or without drug), respectively. 90-120 animals were considered for each lifespan experiment. Animal viability was assessed visually or with gentle prodding on the head. Animals were censored in the event of internal hatching of the larvae, body rupture, or crawling of larvae from the plates.

In another assay the test system is SKN-1/Nrf2. In words: SKN-1 activation assay (GFP reporters for SKN-1, gst-4, gcs-1; qPCR). The following applies: gst-4p::gfp animals on EV or glod-4 RNAi; PA, LA, or UMP (20 pM). It counts as in vivo, Caenorhabditis elegans. The procedure:
Adult animals were examined for SKN-1/Nrf2 activation using GFP reporters for both SKN-1 and SKN-1 target genes: gst-4 and gcs-1. For exogenous MGO and drug assays, age-synchronized GFP reporter strains were subject to control and treatment conditions for a period of 4-6 hours before microscopy. For RNAi-induced activation studies, GFP reporter strains were fed on HT1115 bacteria expressing empty vector pL4440 or RNAi gene from L1 stage. Synchronized day 1 adult animals were then subjected to microscopic examination. Activation of SKN-1 using SKN-1 fusion reporter was determined as described earlier (An et al. (2003) Genes & Dev. 17: 1882-1893; Onken and Driscoll (2010) PloS One, 5: e8758). Scoring for downstream SKN-1 targets carrying GFP reporter for gcs-1 promoter was performed based on a previous study (Wang et al. (2010) PLoS Genetics, doi. org/10.1371/journal.pgen.1001048) and categorized as follows: ‘high’ for strong GFP signal throughout the intestine, ‘medium’ for GFP signal in the anterior or posterior section of the intestine and ‘low’ for weak or no signal. For animals with gst-4 promoters carrying GFP reporters number of GST-4 positive foci was counted under different conditions as described previously (Fensgardet al. (2010) Aging, 2: 133-159). Quantification of acquired images was done using the Image J™ software (//imagej.nih.gov/ij/).
Total RNA was extracted from nearly 100 age-synchronized adult animals picked and collected in 20 pl of M9 buffer using TRIzol reagent (Life Technologies, CA). Subsequently, 1 pg total RNA was used as template for cDNA synthesis. cDNA was synthesized using the ISCRIPT™ cDNA synthesis kit (Bio-Rad, CA) following manufacturer's protocol. qRT-PCR was carried out using the SensiFAST SYBR No-ROX kit (Bioline, MA) in a LightCycler 480 Real-Time PCR system (Roche Diagnostics Corp., IN). Quantification was performed using the comparative AACt method and normalization for internal reference was done using actin gene act-1.

The next assay concerns glod-4 animals. The experiment in a line: LC-MS/MS estimation of a-DC levels (MGO, GO) in worms. Type of assay: in vivo, Caenorhabditis elegans. The following applies: glod-4, PA. The procedure: Worms were cultured on NGM agar plates as explained before for lifespan experiments with some modifications: ˜100 animals/60 mm plates were used for each experimental replicate and animals were harvested at day 4 of adulthood with 20 pL M9 buffer in 1.5 mL eppendorf tubes. Worm suspensions were flash-frozen over liquid nitrogen and subsequently homogenized ultrasonically using a Fisher Scientific's 550 Sonic Dismembrator with 80 pL of sodium formate buffer (pH=3) containing 75 pM of 2,3-hexanedione (internal standard, IS). Two 20 s pulses at amplitude setting 4 of the instrument (on ice) were sufficient to completely homogenize worm bodies. To each homogenate tube 20 pL of 100 mg/mL o-phenelynediamine (OPD) solution in sodium formate buffer (pH=3) were added, and the mixture was allowed to react in dark at room temperature for ˜22 h. The long reaction time and the pH are critical parameters in this protocol: first to ensure complete derivatization of a-DCs bound reversibly to protein/glutathione —SHs; and second to prevent in vitro a-DC generation from glycolytic intermediates (DHAP, GAP, etc.) or due to DNA breakdown (Chaplen et al. (1998) Proc. Natl. Acad. Sci. USA, 95: 5533-5538). At the end of the stipulated reaction window, 12 pL of 5 M perchloric acid was added to each tube and incubated on ice for 30 min to ensure complete protein precipitation. Subsequently, the tubes were centrifuged at 10,000 rpm for 10 min, and the supernatant collected and neutralized with 30 pL 4 M NH4OH solution.
Optimization of analyte-specific MRM transitions, such as determination of suitable precursor and product ions and optimal MS parameters for each transition (Q1, precursor→Q3, product) were achieved by isocratic flow injection of the 10 pM solution (final) for each standard- or IS-OPD derivatives. The most intense (Q1→Q3) transition was used as quantifier, whereas the next best transition was used as qualifier for each compound (Table 4). For LC separation, a solvent gradient of 0.1% acetic acid in water (aqueous) - methanol (organic) was used with 0.4 mL/min flow rate, starting with an […] content of 3% for 0.7 min, which was increased to 100% over 6 min and held at 100% for 1.5 min. The LC column was subsequently reconstituted to its initial condition (methanol content of 3%) over the next 0.5 min and re-equilibrated for 3 min.
Derivatized metabolome extracts, as well as synthetic a-DCs were analyzed by scheduled LC-MRM in positive ion mode. To develop the scheduled LC-MRM method, MS/MS data was collected for all transitions across the length of each LC run for a mixture of synthetic GO-, MGO-, 3DG-, and 2,3-hexanedione (IS)-OPD derivatives (1 pL injection of 1 pM final concentration). Source conditions were as follows: curtain gas (CUR) 20, nebulizer gas (GS1) 60, auxiliary gas (GS2) 50, ionspray voltage (IS) 4500 V, and source temperature (TEM) 450° C. This step was undertaken to ascertain the LC retention times (RT) for the OPD derivatives. Several such sets were acquired to compute analyte-specific variability in RTs. Next, the MS was switched to operate in scheduled MRM mode, whereby the mass spectrometer acquired data for specific MRM transitions ±45 s around the computed RT for the analyte (Table 4). Relative quantification of GO, MGO, and 3DG were based on integration of corresponding OPD derivative-specific quantifier peaks obtained from scheduled LC-MRM runs (peak areas) and adjusted to the number of animals. To account for OPD derivatization efficiencies in individual tubes, sample-to-sample variability in MS response, and differential sample dilutions (both for synthetic a-DCs as well as a-DCs in worm homogenates), the peak areas were normalized to the quantifier peak area for IS-OPD for each sample.

T3 sequence (Q8R4D5 whole entry): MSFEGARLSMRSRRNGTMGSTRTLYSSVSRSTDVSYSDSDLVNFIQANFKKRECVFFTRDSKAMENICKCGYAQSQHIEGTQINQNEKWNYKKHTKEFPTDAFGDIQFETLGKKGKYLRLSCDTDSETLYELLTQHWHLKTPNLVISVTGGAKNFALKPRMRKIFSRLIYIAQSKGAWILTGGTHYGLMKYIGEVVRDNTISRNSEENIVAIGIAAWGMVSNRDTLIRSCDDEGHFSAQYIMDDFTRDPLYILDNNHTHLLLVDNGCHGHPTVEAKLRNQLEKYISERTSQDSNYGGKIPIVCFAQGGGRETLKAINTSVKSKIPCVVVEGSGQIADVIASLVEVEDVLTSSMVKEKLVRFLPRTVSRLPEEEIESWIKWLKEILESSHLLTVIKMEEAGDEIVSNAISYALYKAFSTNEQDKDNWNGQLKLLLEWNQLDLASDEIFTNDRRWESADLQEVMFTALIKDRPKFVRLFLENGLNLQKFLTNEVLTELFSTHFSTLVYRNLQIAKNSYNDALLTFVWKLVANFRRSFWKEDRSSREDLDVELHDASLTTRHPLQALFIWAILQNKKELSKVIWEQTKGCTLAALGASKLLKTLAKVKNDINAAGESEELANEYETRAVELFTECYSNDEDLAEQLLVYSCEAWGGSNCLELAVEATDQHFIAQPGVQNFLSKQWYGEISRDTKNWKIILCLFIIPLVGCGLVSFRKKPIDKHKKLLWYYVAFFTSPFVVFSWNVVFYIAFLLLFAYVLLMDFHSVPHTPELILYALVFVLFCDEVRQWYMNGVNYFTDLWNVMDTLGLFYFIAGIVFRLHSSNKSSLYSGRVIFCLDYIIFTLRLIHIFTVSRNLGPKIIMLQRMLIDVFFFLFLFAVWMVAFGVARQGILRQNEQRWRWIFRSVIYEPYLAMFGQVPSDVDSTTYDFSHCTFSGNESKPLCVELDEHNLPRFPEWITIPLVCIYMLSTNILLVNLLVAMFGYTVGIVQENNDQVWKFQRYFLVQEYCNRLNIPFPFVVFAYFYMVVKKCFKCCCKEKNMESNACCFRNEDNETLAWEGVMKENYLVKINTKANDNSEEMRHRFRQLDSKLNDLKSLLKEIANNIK
T2 sequence (Q6RI86 whole entry): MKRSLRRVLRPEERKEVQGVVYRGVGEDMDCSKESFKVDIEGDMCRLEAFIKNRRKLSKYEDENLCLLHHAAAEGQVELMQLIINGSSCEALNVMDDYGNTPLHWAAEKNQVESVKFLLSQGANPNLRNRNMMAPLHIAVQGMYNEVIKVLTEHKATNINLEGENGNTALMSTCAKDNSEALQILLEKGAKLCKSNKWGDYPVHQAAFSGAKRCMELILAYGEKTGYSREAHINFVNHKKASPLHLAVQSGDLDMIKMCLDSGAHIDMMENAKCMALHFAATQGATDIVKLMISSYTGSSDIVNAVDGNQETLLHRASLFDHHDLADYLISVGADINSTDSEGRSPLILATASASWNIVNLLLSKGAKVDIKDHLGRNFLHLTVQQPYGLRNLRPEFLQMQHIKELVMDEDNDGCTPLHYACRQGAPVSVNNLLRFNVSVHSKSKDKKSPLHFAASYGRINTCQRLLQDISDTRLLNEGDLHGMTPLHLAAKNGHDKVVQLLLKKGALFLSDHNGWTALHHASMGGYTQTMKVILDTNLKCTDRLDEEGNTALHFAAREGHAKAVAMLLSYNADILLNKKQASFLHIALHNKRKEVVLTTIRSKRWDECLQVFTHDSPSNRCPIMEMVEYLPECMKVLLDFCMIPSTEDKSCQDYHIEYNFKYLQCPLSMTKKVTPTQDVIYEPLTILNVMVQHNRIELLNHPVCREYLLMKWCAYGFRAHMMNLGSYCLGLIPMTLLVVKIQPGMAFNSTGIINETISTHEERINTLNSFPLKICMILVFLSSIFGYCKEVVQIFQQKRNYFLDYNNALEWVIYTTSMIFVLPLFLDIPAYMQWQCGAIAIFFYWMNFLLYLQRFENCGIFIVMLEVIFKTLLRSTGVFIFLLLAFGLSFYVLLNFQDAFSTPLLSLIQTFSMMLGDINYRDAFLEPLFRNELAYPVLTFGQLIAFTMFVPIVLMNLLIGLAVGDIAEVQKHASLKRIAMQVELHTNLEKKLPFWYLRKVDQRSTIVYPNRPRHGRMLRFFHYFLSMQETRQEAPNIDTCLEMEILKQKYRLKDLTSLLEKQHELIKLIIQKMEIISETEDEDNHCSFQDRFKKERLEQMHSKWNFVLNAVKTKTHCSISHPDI

As to `C=CCN=C=S` [AITC, allyl isothiocyanate], on TRPA1 (worm), the “Activation of worm TRPA1 channel (Ca2+ flux, Rhod-3 AM)” value is reported as “failed to activate”. In addition, the “Activation of mammalian TRPA1” value on TRPA1 (RAT) is on record as “known to activate”.
As to `CC1CCC(C(C)C)C(O)C1` (stereo not drawn) [menthol], the “Ca2+ flux through the TRPM8 channel (Rhod-3 AM)” value at TRPM8 (mouse) is recorded as “triggers a Ca^+2 flux”. Also, the “Ca2+ flux in native HEK293T cells (Rhod-3 AM)” value with native HEK293T cells is given as “neither compounds resulted in Ca^+2 flux”.
For the molecule `O=c1ccn([C@@H]2O[C@H](COP(=O)(O)O)[C@@H](O)[C@H]2O)c(=O)[nH]1` [UMP, Uridine monophosphate], in the assay on C. elegans [1], the “Touch sensitivity (touch index) in drug screen of TimTec NPL640” value is “reduced touch sensitivity”. Also, in the assay with C. elegans [2], the “Lifespan / early mortality (survival curves)” value is reported as “does not ameliorate”. Besides, the “SKN-1 activation (GFP foci in gst-4p::gfp)” value with SKN-1/Nrf2 is reported as “nor does it activate SKN-1”. Further, the “Levels of GO” value in the assay with glod-4 animals (LA, or UMP (20 pM each) vs EtOH control) is on record as “does not ameliorate”. The “Levels of MGO” value in the assay on glod-4 animals (LA, or UMP (20 pM) vs EtOH control) was “does not ameliorate”.
